Data as given in patent publication US20230310347A1, “BACTERICIDE” (priority 2020, published 2023).

Legend:
[1] = test system: Propionibacterium acnes (GAI 5419); assay: Bactericidal property (Propionibacterium acnes), number of viable bacteria; assay type: cell-based; conditions: for bactericidal effects against Cutibacterium acnes (in words): each ingredient alone, concentration not given
Experimental: Propionibacterium acnes (GAI 5419) was inoculated on a GAM agar medium (manufactured by Nissui Pharmaceutical Co., Ltd.) and precultured under anaerobic conditions at 35° C.±1° C. for 18 to 24 hours. A solution containing Propionibacterium acnes was prepared by diluting the solution to 10^7 to 10^8 bacteria/mL of Propionibacterium acnes with physiological saline.
Next, 10 mL of the samples obtained in Preparation Example 1 were inoculated with 0.1 mL of the above-mentioned solution containing Propionibacterium acnes. These were stored at room temperature for 30 minutes and then diluted 10-fold with an SCDLP agar medium (manufactured by Nihon Pharmaceutical Co., Ltd.) and neutralized. These were poured onto a GAM agar medium (manufactured by Nissui Pharmaceutical Co., Ltd.) according to the pour plate culture method, and anaerobically cultured at 35° C.±1° C. for 2 to 5 days. After that, the numbers of viable bacteria were determined from the numbers of colonies formed and the dilution factor. It is noted that physiological saline was used for the control in place of the samples.
The numbers of viable bacteria were determined in the same manner as Experiment Example 1-1 except that the samples obtained in Preparation Example 1 were changed to the samples obtained in Preparation Example 2.
The numbers of viable bacteria were determined in the same manner as Experiment Example 1-1 except that the samples obtained in Preparation Example 1 were changed to the above-mentioned Samples α30 to α33.
Furthermore, Sample β20 (100 μg/mL of Hinokitiol+100 μg/mL of linalool) was prepared in the same manner as Sample al except that tea tree oil was changed to linalool.

[2] = Storage stability of ingredient (B) alone or mixed with Hinokitiol, GC area percentage; assay type: physicochemical
Experimental: The storage stability of limonene alone and the storage stability of limonene mixed with Hinokitiol were evaluated.
Specifically, limonene was placed in a glass vial, which was hermetically sealed by tightening a septum with an aluminum cap.
Furthermore, 50 parts by mass of limonene and 50 parts by mass of Hinokitiol were mixed, placed in a glass vial different from the above-described glass vial, and hermetically sealed by tightening a septum with an aluminum cap. These two samples were stored at 60° C. for 7 days, and the area percentage of limonene in the glass vials was measured by GC (the instrument: GC-2010 Plus manufactured by Shimadzu Corporation; the detector: flame ionization detector; the column: DB-624 manufactured by Agilent Technologies Japan, Ltd.) immediately after the start of the experiment, after 1 day, after 4 days, and after 7 days. The initial data (immediately after the start of the experiment) was the GC measurement result of limonene alone.
Regarding α-terpinene, γ-terpinene, and terpinen-4-ol, the storage stability of each of these alone and the storage stability of each of these mixed with Hinokitiol were evaluated.
Specifically, measurements were made in the same manner as Experiment Example 6-1 except that limonene was changed to α-terpinene, γ-terpinene, and terpinen-4-ol, respectively. It is noted that, regarding γ-terpinene, GC measurements were only made immediately after the start of the experiment, after one day, and after seven days.

[3] = 60° C., After 1 day, Hinokitiol Absent
[4] = 60° C., After 1 day, Hinokitiol Present (50:50 parts by mass)
[5] = 60° C., After 4 days, Hinokitiol Absent
[6] = 60° C., After 4 days, Hinokitiol Present (50:50 parts by mass)
[7] = 60° C., After 7 days, Hinokitiol Absent
[8] = 60° C., After 7 days, Hinokitiol Present (50:50 parts by mass)
[9] = Immediately after the start of the experiment, Hinokitiol Absent
[10] = Immediately after the start of the experiment, Hinokitiol Present (initial data = GC result of ingredient alone)

CC1=CCC(O)(C(C)C)CC1 (stereo not shown) [Terpinen-4-ol, terpinen-4-ol]
bactericidal effects against Propionibacterium acnes (in words) ([1]; 100 μg/mL, Tables 1 and 2): insufficient bactericidal effects
bactericidal effects against Propionibacterium acnes (in words) ([1]; 50 βg/mL, Table 5): insufficient bactericidal effects
bactericidal effects against Cutibacterium acnes (in words) [1]: insufficient
residual ratio (area percentage (%)) [2, 3]: 92.86%
residual ratio (area percentage (%)) [2, 4]: 97.13%
residual ratio (area percentage (%)) [2, 5]: 84.09%
residual ratio (area percentage (%)) [2, 6]: 96.83%
residual ratio (area percentage (%)) [2, 7]: 74.45%
residual ratio (area percentage (%)) [2, 8]: 96.52%
residual ratio (area percentage (%)) [2, 9]: 96.94%
residual ratio (area percentage (%)) [2, 10]: 96.94%

CC(C)c1cccc(=O)c(O)c1 [Hinokitiol]
bactericidal effects against Propionibacterium acnes (in words) ([1]; 100 μg/mL, Tables 1 and 2): insufficient bactericidal effects
bactericidal effects against Propionibacterium acnes (in words) ([1]; 50 βg/mL, Table 5): insufficient bactericidal effects

CC1=CCC(C(C)C)=CC1 [γ-Terpinene, γ-terpinene]
bactericidal effects against Propionibacterium acnes (in words) ([1]; 100 μg/mL, Tables 1 and 2): no bactericidal effects
bactericidal effects against Propionibacterium acnes (in words) ([1]; 50 βg/mL, Table 5): no bactericidal effects
bactericidal effects against Cutibacterium acnes (in words) [1]: almost no bactericidal effects
residual ratio (area percentage (%)) [2, 3]: 92.09%
residual ratio (area percentage (%)) [2, 4]: 92.22%
residual ratio (area percentage (%)) [2, 7]: 85.49%
residual ratio (area percentage (%)) [2, 8]: 84.44%
residual ratio (area percentage (%)) [2, 9]: 96.81%
residual ratio (area percentage (%)) [2, 10]: 96.81%

(+)-Limonene
bactericidal effects against Propionibacterium acnes (in words) ([1]; 100 μg/mL, Tables 1 and 2): no bactericidal effects
bactericidal effects against Propionibacterium acnes (in words) ([1]; 50 βg/mL, Table 5): no bactericidal effects
bactericidal effects against Cutibacterium acnes (in words) [1]: almost no bactericidal effects
residual ratio (area percentage (%)) [2, 3]: 95.67%
residual ratio (area percentage (%)) [2, 4]: 96.49%
residual ratio (area percentage (%)) [2, 5]: 95.45%
residual ratio (area percentage (%)) [2, 6]: 96.57%
residual ratio (area percentage (%)) [2, 7]: 94.43%
residual ratio (area percentage (%)) [2, 8]: 96.41%
residual ratio (area percentage (%)) [2, 9]: 96.85%
residual ratio (area percentage (%)) [2, 10]: 96.85%
storage stability (in words) ([2]; when combined with a phenol derivative typified by Hinokitiol, Tables 10 to 13): superior storage stability

Cc1cc(O)ccc1C(C)C [Isopropylmethylphenol, 4-isopropyl-3-methylphenol]
bactericidal effects against Propionibacterium acnes (in words) ([1]; 100 μg/mL, Tables 1 and 2): insufficient bactericidal effects

CC1=CC=C(C(C)C)CC1 [α-Terpinene, α-terpinene]
bactericidal effects against Propionibacterium acnes (in words) ([1]; 100 μg/mL, Tables 1 and 2): no bactericidal effects
bactericidal effects against Propionibacterium acnes (in words) ([1]; 50 βg/mL, Table 5): no bactericidal effects
bactericidal effects against Cutibacterium acnes (in words) [1]: almost no bactericidal effects
residual ratio (area percentage (%)) [2, 3]: 85.27%
residual ratio (area percentage (%)) [2, 4]: 82.68%
residual ratio (area percentage (%)) [2, 5]: 81.54%
residual ratio (area percentage (%)) [2, 6]: 77.11%
residual ratio (area percentage (%)) [2, 7]: 78.45%
residual ratio (area percentage (%)) [2, 8]: 70.49%
residual ratio (area percentage (%)) [2, 9]: 89.95%
residual ratio (area percentage (%)) [2, 10]: 89.95%
